Structures can show the parent of a compound that is named as a salt.
What was measured:
L-1210 leukemia = L-1210 leukemia transplanted tumor in mice, life span; assay type: in vivo; set-up: Mean Life Span: unit not given here; details: for Percent Increase In Life Span: over controls; for increase in life span: summary of Tables I and II, drug by itself, any dose level
Procedure: In this procedure, L-1210 leukemia was maintained by weekly passage of 10^5 L-1210 cells intraperitoneally into DBA/2 mice. Diluted ascitic fluid, 0.1 ml. (10^5 cells), was administered up to female B6D2F, mice weighing about 20 g. Drugs were administered intraperitoneally to the animals. Injections containing doxorubicin were given only on day 2 and the 3,4-dihydroxybenzohydroxamic acid was given on days 2, 3 and 4.

L1210 leukemia = details: from Elford et al. and van't Riet et al. publications; cited from earlier work

Structure (SMILES): COc1cccc2c1C(=O)c1c(O)c3c(c(O)c1C2=O)C[C@@](O)(C(=O)CO)C[C@@H]3O[C@H]1C[C@H](N)[C@H](O)[C@H](C)O1 [Doxorubicin hydrochloride]
- Mean Life Span (L-1210 leukemia; Table 1, 6 Mg./Kg. intraperitoneally, day 2, four mice per group): 14.5
- Percent Increase In Life Span (L-1210 leukemia; Table 1, 6 Mg./Kg. intraperitoneally, day 2): 33%
- Percent Cures (L-1210 leukemia; Table 1, 6 Mg./Kg. intraperitoneally, day 2, survivors calculated at day 60): 0%
- Mean Life Span (L-1210 leukemia; Table 1, 17 Mg./Kg. intraperitoneally, day 2, four mice per group): 28.5
- Percent Increase In Life Span (L-1210 leukemia; Table 1, 17 Mg./Kg. intraperitoneally, day 2): 161%
- Percent Cures (L-1210 leukemia; Table 1, 17 Mg./Kg. intraperitoneally, day 2, survivors calculated at day 60): 0%
- Mean Life Span (L-1210 leukemia; Table 1, 29 Mg./Kg. intraperitoneally, day 2, four mice per group): 27.75
- Percent Increase In Life Span (L-1210 leukemia; Table 1, 29 Mg./Kg. intraperitoneally, day 2): 155%
- Percent Cures (L-1210 leukemia; Table 1, 29 Mg./Kg. intraperitoneally, day 2, survivors calculated at day 60): 0%
- Percent Increase In Life Span (L-1210 leukemia; Table II, 6 Mg./Kg. intraperitoneally, day 2): 46%
- Percent Cures (L-1210 leukemia; Table II, 6 Mg./Kg. intraperitoneally, day 2, survivors calculated on day 35): 0%
- Mean Life Span (L-1210 leukemia; Table II, 6 Mg./Kg. intraperitoneally, day 2, three mice per group): 13.3
- Percent Increase In Life Span (L-1210 leukemia; Table II, 17 Mg./Kg. intraperitoneally, day 2): 76%
- Percent Cures (L-1210 leukemia; Table II, 17 Mg./Kg. intraperitoneally, day 2, survivors calculated on day 35): 0%
- Mean Life Span (L-1210 leukemia; Table II, 17 Mg./Kg. intraperitoneally, day 2, three mice per group): 16
- Percent Increase In Life Span (L-1210 leukemia; Table II, 29 Mg./Kg. intraperitoneally, day 2): 189%
- Percent Cures (L-1210 leukemia; Table II, 29 Mg./Kg. intraperitoneally, day 2, survivors calculated on day 35): 33%
- Mean Life Span (L-1210 leukemia; Table II, 29 Mg./Kg. intraperitoneally, day 2, three mice per group): 26.3
- increase in life span (L-1210 leukemia): substantial increase in life span
- survivor (L-1210 leukemia; summary of Tables, by itself, at the highest dose level tested): one

Structure (SMILES): O=C(NO)c1ccc(O)c(O)c1 [3,4-dihydroxybenzohydroxamic acid]
- activity against L1210 leukemia (L1210 leukemia): the most active
- Mean Life Span (L-1210 leukemia; Table 1, 275 Mg./Kg. intraperitoneally, days 2, 3 and 4, four mice per group): 12.75
- Percent Increase In Life Span (L-1210 leukemia; Table 1, 275 Mg./Kg. intraperitoneally, days 2, 3 and 4): 17%
- Percent Cures (L-1210 leukemia; Table 1, 275 Mg./Kg. intraperitoneally, days 2, 3 and 4, survivors calculated at day 60): 0%
- Mean Life Span (L-1210 leukemia; Table 1, 430 Mg./Kg. intraperitoneally, days 2, 3 and 4, four mice per group): 13.0
- Percent Increase In Life Span (L-1210 leukemia; Table 1, 430 Mg./Kg. intraperitoneally, days 2, 3 and 4): 19%
- Percent Cures (L-1210 leukemia; Table 1, 430 Mg./Kg. intraperitoneally, days 2, 3 and 4, survivors calculated at day 60): 0%
- Mean Life Span (L-1210 leukemia; Table 1, 645 Mg./Kg. intraperitoneally, days 2, 3 and 4, four mice per group): no better than control
- Mean Life Span (L-1210 leukemia; Table 1, 645 Mg./Kg. intraperitoneally, days 2, 3 and 4, four mice per group, listed as 3,4-dihydroxy benzohydroxamic acid): 11.0
- Percent Increase In Life Span (L-1210 leukemia; Table 1, 645 Mg./Kg. intraperitoneally, days 2, 3 and 4): 1%
- Percent Cures (L-1210 leukemia; Table 1, 645 Mg./Kg. intraperitoneally, days 2, 3 and 4, survivors calculated at day 60): 0%
- Percent Increase In Life Span (L-1210 leukemia; Table II, 430 Mg./Kg. intraperitoneally, days 2, 3 and 4): 32%
- Percent Cures (L-1210 leukemia; Table II, 430 Mg./Kg. intraperitoneally, days 2, 3 and 4, survivors calculated on day 35): 0%
- Mean Life Span (L-1210 leukemia; Table II, 430 Mg./Kg. intraperitoneally, days 2, 3 and 4, three mice per group): 12
- Percent Increase In Life Span (L-1210 leukemia; Table II, 645 Mg./Kg. intraperitoneally, days 2, 3 and 4): 49%
- Percent Cures (L-1210 leukemia; Table II, 645 Mg./Kg. intraperitoneally, days 2, 3 and 4, survivors calculated on day 35): 0%
- Mean Life Span (L-1210 leukemia; Table II, 645 Mg./Kg. intraperitoneally, days 2, 3 and 4, three mice per group): 13.6
- increase in life span (L-1210 leukemia): very little increase in life span
